Measured values reported in patent publication US20140135319A1, “6-SUBSTITUTED IMIDAZOPYRAZINES FOR USE AS MPS-1 AND TKK INHIBITORS IN THE TREATMENT OF HYPERPROLIFERATIVE DISORDERS” (BAYER INTELLECTUAL PROPERTY GMBH, priority 2010, published 2014).

The molecules below were run against T1, human kinase Mps-1 (Homo sapiens, UniProt P33981) (assay: Mps-1 kinase assay (TR-FRET)). Details: GST-tagged human full length recombinant Mps-1; 10 μM ATP; 1 μM peptide substrate; 60 min at 22° C.
T1 construct: N-terminally GST-tagged human full length recombinant Mps-1 kinase; GST (N); purchased Invitrogen, Karslruhe, Germany PV4071
T1 sequence (P33981 1-857): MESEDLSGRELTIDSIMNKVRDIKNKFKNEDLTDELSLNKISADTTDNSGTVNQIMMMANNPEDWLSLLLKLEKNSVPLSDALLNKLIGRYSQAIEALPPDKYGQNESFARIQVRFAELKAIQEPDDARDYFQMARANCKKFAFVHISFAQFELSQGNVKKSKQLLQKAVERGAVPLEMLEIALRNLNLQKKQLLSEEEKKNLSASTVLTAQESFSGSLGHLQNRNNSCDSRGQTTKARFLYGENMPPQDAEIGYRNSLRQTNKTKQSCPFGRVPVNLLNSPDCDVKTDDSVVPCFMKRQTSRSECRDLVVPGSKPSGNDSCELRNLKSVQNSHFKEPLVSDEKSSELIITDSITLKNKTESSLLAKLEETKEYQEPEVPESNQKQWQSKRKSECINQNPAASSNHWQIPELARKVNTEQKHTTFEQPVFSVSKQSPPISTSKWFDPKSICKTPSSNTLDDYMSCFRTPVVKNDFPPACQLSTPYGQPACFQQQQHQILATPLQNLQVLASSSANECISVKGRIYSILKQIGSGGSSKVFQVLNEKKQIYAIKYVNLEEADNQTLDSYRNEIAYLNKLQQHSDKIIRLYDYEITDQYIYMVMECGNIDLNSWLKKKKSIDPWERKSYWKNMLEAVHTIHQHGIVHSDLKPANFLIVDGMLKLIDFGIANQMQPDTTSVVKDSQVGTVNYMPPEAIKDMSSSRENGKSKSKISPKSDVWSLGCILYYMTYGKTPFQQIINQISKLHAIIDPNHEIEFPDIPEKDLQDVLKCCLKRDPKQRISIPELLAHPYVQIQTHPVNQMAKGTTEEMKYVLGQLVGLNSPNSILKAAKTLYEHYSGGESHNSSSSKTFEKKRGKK
Type: biochemical
In short: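 N-terminally GST-tagged full-length recombinant human Mps-1, about 1 nM final, phosphorylates a biotinylated peptide. Product detected by TR-FRET from Eu-anti-phospho-Ser/Thr antibody to streptavidin-XLent after 1 h at 22° C.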

Question: With `O=C(NC1CC1)c1ccc(-c2cnc3c(NCc4ccc(Cl)s4)nc(-c4ccncc4)cn23)cc1` [Example 3-31, 4-[8-{[(5-chlorothiophen-2-yl)methyl]amino}-6-(pyridin-4-yl)imidazo [1,2-a]pyrazin-3-yl]-N-cyclopropylbenzamide] as the molecule, how does the IC50 read?
Answer: Its IC50 is 2.3 nM.

Question: With `CS(=O)(=O)CCCNc1nc(-c2ccncc2)cn2c(-c3ccc(C(=O)NC4CC4)cc3)cnc12` [Example 3-32, N-cyclopropyl-4-[8-{[3-(methylsulfonyl)propyl]amino}-6-(pyridin-4-yl)imidazo[1,2-a]pyrazin-3-yl]benzamide] as the molecule, how does the IC50 read?
Answer: The IC50 was 21.5 nM.

Question: `O=C(NC1CC1)c1ccc(-c2cnc3c(NCCCF)nc(-c4ccncc4)cn23)cc1` [Example 3-33, N-cyclopropyl-4-{8-[(3-fluoropropyl)amino]-6-(pyridin-4-yl)imidazo [1,2-a]pyrazin-3-yl} benzamide] was tested. Which IC50 did it give?
Answer: Its IC50 is 3.2 nM.

Question: `O=C(NC1CC1)c1ccc(-c2cnc3c(NCCc4nccs4)nc(-c4ccncc4)cn23)cc1` [Example 3-34, N-cyclopropyl-4-[6-(pyridin-4-yl)-8-{[2-(1,3-thiazol-2-yl)ethyl]amino}imidazo[1,2-a]pyrazin-3-yl]benzamide] was tested. Which IC50 did it give?
Answer: Its IC50 is 8.2 nM.

Question: For `NS(=O)(=O)CCNc1nc(-c2ccncc2)cn2c(-c3ccc(C(=O)NC4CC4)cc3)cnc12` [Example 3-35, N-cyclopropyl-4-{6-(pyridin-4-yl)-8-[(2-sulfamoylethyl)amino]imidazo [1,2-a]pyrazin-3-yl} benzamide], which IC50 is on record?
Answer: Its IC50 is 1.9 nM.

Question: `O=C(NC1CC1)c1ccc(-c2cnc3c(NCC4CCCCO4)nc(-c4ccncc4)cn23)cc1` (stereo not shown) [Example 3-36, N-cyclopropyl-4-{6-(pyridin-4-yl)-8-[(tetrahydro-2H-pyran-2-ylmethyl)amino]imidazo[1,2-a]pyrazin-3-yl} benzamide] was tested. Which IC50 did it give?
Answer: Its IC50 is 3.5 nM.

Question: `O=C(NC1CC1)c1ccc(-c2cnc3c(NC[C@@H](O)CO)nc(-c4ccncc4)cn23)cc1` [Example 3-37, N-cyclopropyl-4-{8-[(2,3-dihydroxypropyl)amino]-6-(pyridin-4-yl)imidazo [1,2-a]pyrazin-3-yl}benzamide] was tested. Which IC50 did it give?
Answer: Its IC50 is 19.3 nM.

Question: Which IC50 does the source give for `Cc1cc(-c2cnc3c(NC[C@H](O)C(F)(F)F)nc(-c4ccnn4C)cn23)ccc1C(=O)NC1CC1` [Example 3-38, N-cyclopropyl-2-methyl-4-{6-(1-methyl-1H-pyrazol-5-yl)-8-[(3,3,3-trifluoro-2-hydroxypropyl)amino]imidazo[1,2-a]pyrazin-3-yl}benzamide] here?
Answer: Its IC50 is 7.2 nM.

Question: With `C=CCNc1nc(-c2ccccc2)cn2c(-c3ccc(C(=O)NC4CC4)cc3)cnc12` [Example 3-39, 4-[8-(Allylamino)-6-phenylimidazo[1,2-a]pyrazin-3-yl]-N-cyclopropylbenzamide] as the molecule, how does the IC50 read?
Answer: The IC50 was 3.6 nM.

Question: `C=C(C)CNc1nc(-c2ccccc2)cn2c(-c3ccc(C(=O)NC4CC4)cc3)cnc12` [Example 3-40, N-Cyclopropyl-4-{8-[(2-methylprop-2-en-1-yl)amino]-6-phenylimidazo[1,2-a]pyrazin-3-yl}benzamide] was tested. Which IC50 did it give?
Answer: The IC50 was 3.7 nM.

Question: `O=C(NC1CC1)c1ccc(-c2cnc3c(NCCOCC4CCCO4)nc(-c4ccccc4)cn23)cc1` (stereo not shown) [Example 3-41, N-cyclopropyl-4-(6-phenyl-8-{[2-(tetrahydrofuran-2-ylmethoxy)ethyl]amino}imidazo[1,2-a]pyrazin-3-yl)benzamide] was tested. Which IC50 did it give?
Answer: The IC50 was 20.4 nM.

Question: How did the IC50 turn out when `O=C(NC1CC1)c1ccc(-c2cnc3c(NCCCOCC4COCO4)nc(-c4ccccc4)cn23)cc1` (stereo not shown) [Example 3-42, N-cyclopropyl-4-(8-{[3-(1,3-dioxolan-4-ylmethoxy)propyl]amino}-6-phenylimidazo[1,2-a]pyrazln-3-yl)benzamide] was run?
Answer: The IC50 was 5.1 nM.

Question: `O=C(NC1CC1)c1ccc(-c2cnc3c(NCCOCCOCCO)nc(-c4ccccc4)cn23)cc1` [Example 3-43, N-cyclopropyl-4-[8-({2-[2-(2-hydroxyethoxy)ethoxy]ethyl}amino)-6-phenylimidazo[1,2-a]pyrazin-3-yl]benzamide] was tested. Which IC50 did it give?
Answer: The IC50 was 17.8 nM.

Question: With `C=CCOC(=O)CCCNc1nc(-c2ccccc2)cn2c(-c3ccc(C(=O)NC4CC4)cc3)cnc12` [Example 3-44, Allyl 4-({3-[4-(cyclopropylcarbamoyl)phenyl]-6-phenylimidazo[1,2-a]pyrazin-8-yl}amino)butanoate] as the molecule, how does the IC50 read?
Answer: The IC50 was 14.2 nM.

Question: How did the IC50 turn out when `NCC#CCCNc1nc(-c2ccccc2)cn2c(-c3ccc(C(=O)NC4CC4)cc3)cnc12` [Example 4-1, 4-{8-[(5-Aminopent-3-yn-1-yl)amino]-6-phenylimidazo[1,2-a]pyrazin-3-yl}-N-cyclopropylbenzamide] was run?
Answer: Its IC50 is 10.8 nM.

Question: With `NC/C=C/CCNc1nc(-c2ccccc2)cn2c(-c3ccc(C(=O)NC4CC4)cc3)cnc12` [Example 4-2, 4-(8-{[(3E)-5-aminopent-3-en-1-yl]amino}-6-phenylimidazo[1,2-a]pyrazin-3-yl)-N-cyclopropylbenzamide] as the molecule, how does the IC50 read?
Answer: Its IC50 is 4.4 nM.

Question: Which IC50 does the source give for `NC/C=C\CCNc1nc(-c2ccccc2)cn2c(-c3ccc(C(=O)NC4CC4)cc3)cnc12` [Example 4-3, 4-(8-{[(3Z)-5-aminopent-3-en-1-yl]amino}-6-phenylimidazo[1,2-a]pyrazin-3-yl)-N-cyclopropylbenzamide] here?
Answer: The IC50 was 4.6 nM.

Question: Which IC50 does the source give for `CC(C)CNc1nc(C#N)cn2c(-c3ccc(C(=O)NC4CC4)cc3)cnc12` [Example 5-1, 4-{6-cyano-8-[(2-methylpropyl)amino]imidazo[1,2-a]pyrazin-3-yl}-N-cyclopropyl benzamide] here?
Answer: Its IC50 is 55.1 nM.

Question: `Cc1cc(-c2cnc3c(NCC(C)C)nc(-c4ccncc4)cn23)ccc1C(=O)NC1CC1` [Example 6-1, N-cyclopropyl-2-methyl-4-{8-[(2-methylpropyl)amino]-6-(pyridin-4-yl)imidazo[1,2-a]pyrazin-3-yl}benzamide] was tested. Which IC50 did it give?
Answer: The IC50 was 1.5 nM.

Question: With `Cc1cc(-c2cnc3c(NCCC(F)(F)F)nc(C4=CCOCC4)cn23)ccc1C(=O)NC1CC1` [Example 6-2, N-cyclopropyl-4-{6-(3,6-dihydro-2H-pyran-4-yl)-8-[(3,3,3-trifluoro-propyl)amino]imidazo[1,2-a]pyrazin-3-yl}-2-methylbenzamide] as the molecule, how does the IC50 read?
Answer: Its IC50 is 6.5 nM.

Question: For `Cc1cc(-c2cnc3c(NCC4CC4C)nc(-c4ccc(F)cc4)cn23)ccc1C(=O)NC1CC1` (stereo not shown) [Example 6-3, N-cyclopropyl-4-[6-(4-fluorophenyl)-8-{[(2-methylcyclopropyl)methyl]amino}imidazo[1,2-a]pyrazin-3-yl]-2-methylbenzamide], which IC50 is on record?
Answer: Its IC50 is 10.4 nM.

Question: How did the IC50 turn out when `Cc1cc(-c2cnc3c(NCC4CCCO4)nc(C4=CCOCC4)cn23)ccc1C(=O)NC1CC1` (stereo not shown) [Example 6-4, N-cyclopropyl-4-{6-(3,6-dihydro-2H-pyran-4-yl)-8-[(tetrahydrofuran-2-ylmethyl)amino]imidazo[1,2-a]pyrazin-3-yl}-2-methylbenzamide] was run?
Answer: Its IC50 is 35.7 nM.

Question: `Cc1cc(-c2cnc3c(NCC(C)C)nc(C4=CCOCC4)cn23)ccc1C(=O)NC1CC1` [Example 6-5, N-cyclopropyl-4-{6-(3,6-dihydro-2H-pyran-4-y1)-8-[(2-methylpropyl)amino]imidazo[1,2-a]pyrazin-3-yl}-2-methylbenzamide] was tested. Which IC50 did it give?
Answer: Its IC50 is 9.3 nM.

Question: Which IC50 does the source give for `Cc1cc(-c2cnc3c(NCCC(C)CO)nc(C4=CCOCC4)cn23)ccc1C(=O)NC1CC1` (stereo not shown) [Example 6-6, N-cyclopropyl-4-{6-(3,6-dihydro-2H-pyran-4-yl)-8-[(4-hydroxy-3-methylbutyl)amino]imidazo[1,2-a]pyrazin-3-yl}-2-methylbenzamide] here?
Answer: Its IC50 is 20.6 nM.

Question: With `Cc1cc(-c2cnc3c(NCC4CN(C)CCO4)nc(C4=CCOCC4)cn23)ccc1C(=O)NC1CC1` (stereo not shown) [Example 6-7, N-cyclopropyl-4-[6-(3,6-dihydro-2H-pyran-4-yl)-8-{[(4-methyl-morpholin-2-yl)methyl]amino}imidazo[1,2-a]pyrazin-3-y1]-2-methylbenzamide] as the molecule, how does the IC50 read?
Answer: Its IC50 is 294 nM.

Question: With `Cc1cc(-c2cnc3c(NCC4CCC(C)(O)CC4)nc(C4=CCOCC4)cn23)ccc1C(=O)NC1CC1` (stereo not shown) [Example 6-8, N-cyclopropyl-4-[6-(3,6-dihydro-2H-pyran-4-yl)-8-{[(4-hydroxy-4-methylcyclohexyl)methyl]amino}imidazo[1,2-a]pyrazin-3-yl]-2-methylbenzamide] as the molecule, how does the IC50 read?
Answer: Its IC50 is 11.1 nM.

Question: For `Cc1cc(-c2cnc3c(NCC4CCN(C)C4)nc(C4=CCOCC4)cn23)ccc1C(=O)NC1CC1` (stereo not shown) [Example 6-9, N-cyclopropyl-4-[6-(3,6-dihydro-2H-pyran-4-yl)-8-{[(1-methyl-pyrrolidin-3-yl)methyl]amino}imidazo[1,2-a]pyrazin-3-yl]-2-methylbenzamide], which IC50 is on record?
Answer: Its IC50 is 77.6 nM.

Question: With `Cc1cc(-c2cnc3c(NCC4CCOC4)nc(C4=CCOCC4)cn23)ccc1C(=O)NC1CC1` (stereo not shown) [Example 6-11, N-cyclopropyl-4-{6-(3,6-dihydro-2H-pyran-4-yl)-8-[(tetrahydrofuran-3-ylmethyl)amino]imidazo[1,2-a]pyrazin-3-yl}-2-methylbenzamide] as the molecule, how does the IC50 read?
Answer: Its IC50 is 6 nM.
